System: primary mouse hepatocytes
Assay: Gene expression in primary mouse hepatocytes, GTX vs non-GTX (four-gene classifier, 24 h)
Method: Hepatocyte cells were incubated and exposed to a compound for 24 h before being harvested for RNA isolation.
The results of the gene expression analysis may then be fed into a statistical software package such as R, Splus, or Microsoft Excel. […] If none or only one of these criteria were met, no point was scored.
For each of the four genes mentioned in the table (1700007K13RIK, GAS2L3, SPC25, DDIT4L), a statistical comparison was made between the normalized expression data for these genes. […] If none or only one of these criteria were met, no point was scored.
For each compound, the sum of the scores for four genes is taken. If this score is 0, a compound can be believed not to be genotoxic. If this score is 1, 2, 3 or 4, a compound is genotoxic.
If none or only one of these criteria were met, no point was scored.

[1] = 24 h exposure, average of four replicates

## O=C(O)Cc1ccccc1Nc1c(Cl)cccc1Cl [DF, Diclofenac]
  Ratios of gene expression treated/untreated 1700007K13RIK: 0.09622
  Ratios of gene expression treated/untreated DDIT4L: 0.1268
  Ratios of gene expression treated/untreated GAS2L3: −0.2839
  Ratios of gene expression treated/untreated SPC25: 0.4079
[1]
  score 1700007K13RIK: 0
  score DDIT4L: 0
  score GAS2L3: 0
  score SPC25: 0
Sum of scores for four genes, 0 = not genotoxic, 1, 2, 3 or 4 = genotoxic
  Total score: 0

From patent publication US20120122727A1, “IN VITRO METHOD FOR PREDICTING WHETHER A COMPOUND IS GENOTOXIC IN VIVO” (priority 2009, published 2012)
